Data: ChEMBL document CHEMBL1128521, “Partial GABAA receptor agonists. Synthesis and in vitro pharmacology of a series of nonannulated analogs of 4,5,6,7-tetrahydroisoxazolo[5,4-c]pyridin-3-ol” (J Med Chem, 1995)

Experiments:
[1] = organism: Rattus norvegicus; assay: cells; assay type: functional, organism-based; settings: Brain
[2] = Reversal potential is determined electrophysiologically against the GABA A receptor; assay type: functional
[3] = biological target: GABA B receptor (Rattus norvegicus, UniProt O88871+Q9Z0U4)
[4] = biological target: GABA-A receptor; anion channel
[5] = physchem
Description: PKa values of the compound

GABA B receptor, sequence (Q9Z0U4 whole entry): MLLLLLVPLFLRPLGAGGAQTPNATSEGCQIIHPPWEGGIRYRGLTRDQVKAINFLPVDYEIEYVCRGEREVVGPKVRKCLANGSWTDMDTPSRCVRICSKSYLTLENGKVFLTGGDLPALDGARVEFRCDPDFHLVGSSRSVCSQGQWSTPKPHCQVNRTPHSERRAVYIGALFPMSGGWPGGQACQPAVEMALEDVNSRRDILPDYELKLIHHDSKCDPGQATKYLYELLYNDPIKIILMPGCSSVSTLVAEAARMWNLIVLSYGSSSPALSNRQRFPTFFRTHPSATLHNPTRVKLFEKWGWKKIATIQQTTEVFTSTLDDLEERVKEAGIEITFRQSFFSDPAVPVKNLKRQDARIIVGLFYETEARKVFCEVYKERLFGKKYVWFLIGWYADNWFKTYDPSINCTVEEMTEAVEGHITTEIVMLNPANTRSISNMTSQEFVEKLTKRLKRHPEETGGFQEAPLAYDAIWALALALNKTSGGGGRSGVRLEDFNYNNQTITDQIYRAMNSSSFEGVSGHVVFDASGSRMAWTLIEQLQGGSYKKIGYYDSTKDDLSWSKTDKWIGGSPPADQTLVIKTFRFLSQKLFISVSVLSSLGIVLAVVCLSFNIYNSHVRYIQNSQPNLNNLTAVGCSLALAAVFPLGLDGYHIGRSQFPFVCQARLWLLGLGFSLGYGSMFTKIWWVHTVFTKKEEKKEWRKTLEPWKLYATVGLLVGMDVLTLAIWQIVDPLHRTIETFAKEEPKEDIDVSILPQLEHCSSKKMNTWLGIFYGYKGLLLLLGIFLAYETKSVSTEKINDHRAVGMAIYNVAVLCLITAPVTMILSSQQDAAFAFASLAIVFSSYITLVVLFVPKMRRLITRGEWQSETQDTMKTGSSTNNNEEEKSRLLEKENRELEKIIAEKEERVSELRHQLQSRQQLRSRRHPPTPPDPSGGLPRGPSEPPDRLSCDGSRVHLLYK
GABA B receptor, sequence (O88871 whole entry): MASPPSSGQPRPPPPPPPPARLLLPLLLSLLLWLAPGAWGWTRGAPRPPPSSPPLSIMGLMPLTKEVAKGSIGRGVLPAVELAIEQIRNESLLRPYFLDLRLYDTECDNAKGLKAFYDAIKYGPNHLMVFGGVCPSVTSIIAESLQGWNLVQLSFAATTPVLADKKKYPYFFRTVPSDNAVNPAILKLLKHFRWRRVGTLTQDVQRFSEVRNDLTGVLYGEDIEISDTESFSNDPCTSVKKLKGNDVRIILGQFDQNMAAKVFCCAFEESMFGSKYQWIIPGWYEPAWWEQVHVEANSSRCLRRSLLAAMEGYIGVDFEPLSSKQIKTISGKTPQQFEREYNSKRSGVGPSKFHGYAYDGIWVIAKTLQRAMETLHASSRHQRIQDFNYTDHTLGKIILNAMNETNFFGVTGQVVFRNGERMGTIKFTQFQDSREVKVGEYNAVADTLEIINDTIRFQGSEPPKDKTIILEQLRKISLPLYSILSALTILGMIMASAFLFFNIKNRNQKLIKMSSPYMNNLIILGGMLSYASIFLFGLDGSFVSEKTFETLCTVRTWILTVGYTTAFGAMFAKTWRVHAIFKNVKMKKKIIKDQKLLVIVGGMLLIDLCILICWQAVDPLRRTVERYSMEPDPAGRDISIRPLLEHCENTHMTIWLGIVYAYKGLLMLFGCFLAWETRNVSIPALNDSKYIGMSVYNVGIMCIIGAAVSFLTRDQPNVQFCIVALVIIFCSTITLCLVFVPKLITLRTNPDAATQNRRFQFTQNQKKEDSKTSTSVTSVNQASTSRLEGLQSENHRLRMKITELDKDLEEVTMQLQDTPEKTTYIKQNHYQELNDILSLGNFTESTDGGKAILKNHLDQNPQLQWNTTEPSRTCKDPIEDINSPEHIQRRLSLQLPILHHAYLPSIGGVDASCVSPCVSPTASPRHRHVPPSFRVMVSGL

| IC50 [3] [µM] | IC50 [4] [µM] | SMILES | IC50 [1] [µM] | Reverse potential [2] | pKa [5] |
| --- | --- | --- | --- | --- | --- |
| – | – | Oc1cc(C2=CCNCC2)sn1 | > 300 | 5.3 | – |
| > 100 | > 100 | O=C(O)/C=C/C1=CCNCC1 | > 300 | – | – |
| > 100 | 0.022 | O=C(O)C1=CCNCC1 [ISOGUVACINE] | > 300 | 5.2 | – |
| – | – | Oc1cc(C2CCNCC2)on1 | > 300 | 5.9 | 5.3 |
| > 100 | > 100 | O=C(O)CCC1CCNCC1 | > 300 | – | – |
| > 100 | 52 | O=C(O)/C=C/C1CCNCC1 | > 300 | – | – |
| > 100 | > 100 | O=C(O)CCC1=CCNCC1 | > 300 | – | – |

| SMILES | IC50 [3] [µM] | IC50 [4] [µM] | IC50 [1] [µM] | Reverse potential [2] | pKa [5] |
| --- | --- | --- | --- | --- | --- |
| O=c1cc(C2=CCNCC2)s[nH]1 | > 100 | – | – | – | – |
| Oc1cc(C2=CCNCC2)on1 | > 100 | 32 | > 300 | 5.6 | 5.1 |
| Oc1cc(C2CCNCC2)sn1 | > 100 | 1.3 | > 300 | 5.5 | 6.9 |
| Oc1cc(C2CCNCC2)no1 | > 100 | 26 | > 300 | 4.3 | – |
